Assay results published in article PMC6913697 (Journal of Experimental Botany, 2019).

Assays:
Type in all cases: biochemical
HaCHI1 = molecular target: T1, HaCHI1 (Haplopteris amboinensis, UniProt A0A4Y6I1E6); assay: HPLC product analysis
T1 sequence (A0A4Y6I1E6 1-214): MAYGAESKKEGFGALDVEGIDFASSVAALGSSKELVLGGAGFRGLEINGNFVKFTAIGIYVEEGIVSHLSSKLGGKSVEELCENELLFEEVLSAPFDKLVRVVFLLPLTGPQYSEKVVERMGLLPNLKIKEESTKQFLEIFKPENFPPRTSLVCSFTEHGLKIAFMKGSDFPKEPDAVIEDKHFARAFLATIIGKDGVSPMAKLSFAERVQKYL

PvCHI1 = molecular target: T2, PvCHI1 (Pteris vittata, UniProt A0A4Y6I0P5); assay: HPLC product analysis
T2 sequence (A0A4Y6I0P5 1-214): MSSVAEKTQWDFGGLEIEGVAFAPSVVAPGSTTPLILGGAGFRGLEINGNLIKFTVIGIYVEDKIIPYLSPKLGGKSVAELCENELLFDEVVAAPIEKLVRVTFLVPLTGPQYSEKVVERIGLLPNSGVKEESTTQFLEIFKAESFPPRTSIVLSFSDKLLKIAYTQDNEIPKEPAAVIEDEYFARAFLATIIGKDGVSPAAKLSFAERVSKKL

AdcCHI1 = molecular target: T3, AdcCHI1 (Adiantum caudatum, UniProt A0A4Y6I1H0); assay: HPLC product analysis
T3 sequence (A0A4Y6I1H0 1-214): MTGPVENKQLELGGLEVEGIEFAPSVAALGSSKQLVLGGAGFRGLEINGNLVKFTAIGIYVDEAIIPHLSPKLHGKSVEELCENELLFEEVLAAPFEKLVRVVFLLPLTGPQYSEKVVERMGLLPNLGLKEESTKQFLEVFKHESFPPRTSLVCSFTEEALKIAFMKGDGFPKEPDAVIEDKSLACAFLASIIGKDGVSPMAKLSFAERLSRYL

LoCHS2 = molecular target: T4, LoCHS2 (Lindsaea orbiculata, UniProt A0A4Y6I0P0); assay: LC-MS product analysis; details: 100 μM malonyl-CoA, 50 mM potassium phosphate pH 6.5, 35 °C, no CHIL
T4 sequence (A0A4Y6I0P0 1-439): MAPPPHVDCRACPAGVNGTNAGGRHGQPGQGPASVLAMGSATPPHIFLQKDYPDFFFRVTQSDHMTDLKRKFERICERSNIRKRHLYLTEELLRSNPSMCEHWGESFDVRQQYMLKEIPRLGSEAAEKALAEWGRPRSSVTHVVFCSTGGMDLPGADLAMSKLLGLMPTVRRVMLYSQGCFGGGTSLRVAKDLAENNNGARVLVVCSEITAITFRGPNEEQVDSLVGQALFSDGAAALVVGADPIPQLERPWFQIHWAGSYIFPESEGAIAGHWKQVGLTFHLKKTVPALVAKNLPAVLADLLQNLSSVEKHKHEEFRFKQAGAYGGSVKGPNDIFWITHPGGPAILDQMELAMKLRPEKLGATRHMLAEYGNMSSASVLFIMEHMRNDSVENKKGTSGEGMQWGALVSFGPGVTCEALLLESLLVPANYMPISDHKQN

LoCHS1 = molecular target: T5, LoCHS1 (Lindsaea orbiculata, UniProt A0A4Y6I0N8); assay: LC-MS product analysis; details: 100 μM malonyl-CoA, 50 mM potassium phosphate pH 6.5, 35 °C, no CHIL
T5 sequence (A0A4Y6I0N8 1-405): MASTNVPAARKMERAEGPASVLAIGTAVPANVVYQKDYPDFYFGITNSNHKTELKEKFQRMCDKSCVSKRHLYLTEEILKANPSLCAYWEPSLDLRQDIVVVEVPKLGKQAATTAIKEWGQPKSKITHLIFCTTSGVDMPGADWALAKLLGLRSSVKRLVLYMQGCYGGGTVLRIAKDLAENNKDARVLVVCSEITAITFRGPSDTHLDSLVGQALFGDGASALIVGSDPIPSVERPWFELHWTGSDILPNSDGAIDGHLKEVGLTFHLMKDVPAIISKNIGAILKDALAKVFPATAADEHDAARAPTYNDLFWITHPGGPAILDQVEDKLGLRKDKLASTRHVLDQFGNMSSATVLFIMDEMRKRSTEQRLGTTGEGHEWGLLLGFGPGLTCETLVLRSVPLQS

[1] = 50 μM substrate, 50 mM Tris-HCl pH 7.5, 25 °C

O=C(/C=C/c1ccc(O)cc1)c1ccc(O)cc1O [isoliquiritigenin]
HPLC product analysis (HaCHI1; [1]): AcCHI1, AdcCHI1, AcaCHI1, HaCHI1, and PvCHI1 were all able to catalyze type II-specific substrates | HPLC product analysis (PvCHI1; [1]): AcCHI1, AdcCHI1, AcaCHI1, HaCHI1, and PvCHI1 were all able to catalyze type II-specific substrates | HPLC product analysis (AdcCHI1; [1]): AcCHI1, AdcCHI1, AcaCHI1, HaCHI1, and PvCHI1 were all able to catalyze type II-specific substrates

O=C(/C=C/c1ccc(O)cc1)c1c(O)cc(O)cc1O [naringenin chalcone]
HPLC product analysis (HaCHI1; room temperature, 1 min): the other five (AcCHI1, AcaCHI1, AdcCHI1, HaCHI1, and PvCHI1) exhibited slight type II CHI activity | HPLC product analysis (PvCHI1; room temperature, 1 min): the other five (AcCHI1, AcaCHI1, AdcCHI1, HaCHI1, and PvCHI1) exhibited slight type II CHI activity | HPLC product analysis (AdcCHI1; room temperature, 1 min): the other five (AcCHI1, AcaCHI1, AdcCHI1, HaCHI1, and PvCHI1) exhibited slight type II CHI activity

CC(C)(COP(=O)(O)OP(=O)(O)OC[C@H]1O[C@@H](n2cnc3c(N)ncnc32)[C@H](O)[C@@H]1OP(=O)(O)O)[C@@H](O)C(=O)NCCC(=O)NCCSC(=O)/C=C/c1ccc(O)cc1 [p-coumaroyl-CoA]
LC-MS product analysis (LoCHS2): reactions were provided with p-coumaroyl-CoA and malonyl-CoA | LC-MS product analysis (LoCHS1): reactions were provided with p-coumaroyl-CoA and malonyl-CoA
